The text below walks through data of paper PMC12434670 (Journal of Medicinal Chemistry, 2025).

Like-named read-outs stand apart in the source and are kept apart here.

Data set [1] deals with A/H1N1 virus A/PR/8/34 (PR8). As to the kind of experiment: microbe, parasite or virus in culture. It counts as cell-based. The following applies: Influenza A virus, MDCK.
Data set [2] relates to A/H1N1 virus A/Virginia/ATCC3/2009 (Virg09). Put plainly: microbe, parasite or virus in culture. The format is cell-based, influenza A virus. The following applies: for EC50: Influenza A virus, MDCK.
Data set [3] has as its system MDCK cells. The following applies: dog.
A short description of data set [4]: in vitro. The following applies: dog.
Setting [5] is: read-out: Antiviral EC50 for PR8 virus.
The mark [6] stands for this setting: read-out: Antiviral EC50 for Virg09 virus.
Where [7] appears, read: read-out: Antiviral EC50 against A/H1N1 virus, PR8 strain, MTS.
Setting [8] is: read-out: Antiviral EC50 against A/H1N1 virus, PR8 strain, Microscopy.
[9] abbreviates: read-out: Antiviral EC50 against A/H1N1 virus, Virg09 strain, MTS.
Setting [10] is: read-out: Antiviral EC50 against A/H1N1 virus, Virg09 strain, Microscopy.

For `Cc1cc(CNC(=O)c2cc(F)cc(F)c2)c(C)s1` [Compound 26, 3,5-Difluoro-N-[(2,5-dimethylthiophen-3-yl)methyl]benzamide], the EC50 in data set [1] (setting [5]) and in data set [2] (setting [6]) was > 100 µM each time.
For the molecule `Cc1cc(CNC(=O)c2cc(Cl)cc(Cl)c2)c(C)s1` [Compound 27, 3,5-Dichloro-N-[(2,5-dimethylthiophen-3-yl)methyl]benzamide], the EC50 in data set [1] (setting [5]) and in data set [2] (setting [6]) was > 100 µM each time.
As to `Cc1cc(CNC(=O)c2cc(Br)cc(Br)c2)c(C)s1` [Compound 28, 3,5-Dibromo-N-[(2,5-dimethylthiophen-3-yl)methyl]benzamide], the EC50 in data set [1] (setting [5]) and in data set [2] (setting [6]) was > 100 µM each time.
For `Cc1cc(CNC(=O)c2cccc(F)c2)c(C)s1` [Compound 30, N-[(2,5-Dimethylthiophen-3-yl)methyl]-3-fluorobenzamide], the EC50 in data set [1] (setting [5]) and in data set [2] (setting [6]) was > 100 µM each time.
Regarding `Cc1cc(CNC(=O)c2cccc(C(F)(F)F)c2)c(C)s1` [Compound 31, N-[(2,5-Dimethylthiophen-3-yl)methyl]-3-(trifluoromethyl)benzamide], the EC50 in data set [1] (setting [5]) and in data set [2] (setting [6]) was > 100 µM in each case.
For the molecule `Cc1cc(CNC(=O)c2cccc(Cl)c2)c(C)s1` [Compound 32, 3-Chloro-N-[(2,5-dimethylthiophen-3-yl)methyl]benzamide], the EC50 in data set [1] (setting [5]) and in data set [2] (setting [6]) was > 100 µM throughout.
As to `Cc1cc(CNC(=O)c2cccc(Br)c2)c(C)s1` [Compound 33, 3-Bromo-N-[(2,5-dimethylthiophen-3-yl)methyl]benzamide], the EC50 in data set [1] (setting [5]) and in data set [2] (setting [6]) was > 100 µM in each case.
In the case of `Cc1cc(CNC(=O)c2cccc([N+](=O)[O-])c2)c(C)s1` [Compound 34, N-[(2,5-Dimethylthiophen-3-yl)methyl]-3-nitrobenzamide], the EC50 in data set [1] (setting [5]) and in data set [2] (setting [6]) was > 100 µM each time.
Regarding `Cc1cc(CNC(=O)c2cc(F)c(F)c(C(F)(F)F)c2)c(C)s1` [Compound 35, N-((2,5-Dimethylthiophen-3-yl)methyl)-3,4-difluoro-5-(trifluoromethyl)benzamide], the “Cytotoxicity MCC, Microscopy” value in data set [3] was >100 µM. Besides, in data set [4], the CC50 is > 100 µM. Besides, the EC50 in data set [1] (setting [7]) came out at 0.22 ± 0.03 µM; in data set [1] (setting [8]) it was 0.86 ± 0.41 µM; in data set [2] (setting [9]) it was 0.2 ± 0.05 µM; in data set [2] (setting [10]) it was 0.89 ± 0.13 µM.
In the case of `Cc1cc(CNC(=O)c2ccccc2)c(C)s1` [Compound 40, N-((2,5-Dimethylthiophen-3-yl)methyl)benzamide], the EC50 in data set [1] (setting [5]) and in data set [2] (setting [6]) was > 100 µM in each case.
`Cc1cc(CNC(=O)c2ccc(Cl)cc2)c(C)s1` [Compound 41, 4-Chloro-N-((2,5-dimethylthiophen-3-yl)methyl)benzamide]: the EC50 in data set [1] (setting [5]) and in data set [2] (setting [6]) was > 100 µM throughout.
`Cc1ccc(C(=O)NCc2cc(C)sc2C)cc1` [Compound 42, N-((2,5-Dimethylthiophen-3-yl)methyl)-4-methylbenzamide]: the EC50 in data set [1] (setting [5]) and in data set [2] (setting [6]) was > 100 µM throughout.
Regarding `COc1ccc(C(=O)NCc2cc(C)sc2C)cc1` [Compound 43, N-((2,5-Dimethylthiophen-3-yl)methyl)-4-methoxybenzamide], the EC50 in data set [1] (setting [5]) and in data set [2] (setting [6]) was > 100 µM throughout.
Regarding `Cc1cc(CNC(=O)c2ccc(Cl)c(Cl)c2)c(C)s1` [Compound 44, 3,4-Dichloro-N-((2,5-dimethylthiophen-3-yl)methyl)benzamide], the EC50 in data set [1] (setting [5]) and in data set [2] (setting [6]) was > 100 µM throughout.
For the molecule `Cc1cc(CNC(=O)c2cc(F)cc(C(F)(F)F)c2)cs1` [Compound 45, 3-Fluoro-N-((5-methylthiophen-3-yl)methyl)-5-(trifluoromethyl)benzamide], the “Cytotoxicity MCC, Microscopy” value in data set [3] was determined as 78 ± 22 µM. Moreover, the CC50 in data set [4] stood at 67 ± 1 µM. Moreover, the EC50 in data set [1] (setting [7]) came out at 0.68 ± 0.51 µM; in data set [1] (setting [8]), 0.26 ± 0.02 µM; in data set [2] (setting [9]) it was 0.39 ± 0.18 µM; in data set [2] (setting [10]), 1.6 ± 0.5 µM.
As for `Cc1sccc1CNC(=O)c1cc(F)cc(C(F)(F)F)c1` [Compound 46, 3-Fluoro-N-((2-methylthiophen-3-yl)methyl)-5-(trifluoromethyl)benzamide], the “Cytotoxicity MCC, Microscopy” value in data set [3] amounted to 67 ± 33 µM. Moreover, the CC50 in data set [4] is > 100 µM. The EC50 came to 0.23 ± 0.08 µM in data set [1] (setting [7]), 0.17 ± 0.04 µM in data set [1] (setting [8]), 6.8 ± 6.5 µM in data set [2] (setting [9]) and 8.3 ± 5.1 µM in data set [2] (setting [10]). Moreover, the “ΔΔG (exp), change VF-57a → labelled compound” value in data set [2] is reported as 1.8 kcal/mol. Besides, in data set [2], the “ΔΔG (exp), change labelled compound → VF-57a” value is on record as “–1.8 kcal/mol”.
Turning to `O=C(NCc1ccsc1)c1cc(F)cc(C(F)(F)F)c1` [Compound 47, 3-Fluoro-N-(Thiophen-3-ylmethyl)-5-(trifluoromethyl)benzamide], in data set [3], the “Cytotoxicity MCC, Microscopy” value was >100 µM. For the same molecule, in data set [4], the CC50 is > 100 µM. The EC50 was determined as 0.42 ± 0.1 µM in data set [1] (setting [7]), 0.44 ± 0.16 µM in data set [1] (setting [8]), 7.2 ± 4.1 µM in data set [2] (setting [9]) and 20 ± 8 µM in data set [2] (setting [10]). Further, the “ΔΔG (exp), change VF-57a → labelled compound” value in data set [2] turned out to be 1.9 kcal/mol. Besides, the “ΔΔG (exp), change labelled compound → VF-57a” value in data set [2] is reported as “–1.9 kcal/mol”.
With `Cc1cc(CNC(=O)c2cc(Cl)cc(C(F)(F)F)c2)cs1` [Compound 48, 3-Chloro-N-((5-methylthiophen-3-yl)methyl)-5-(trifluoromethyl)benzamide], the “Cytotoxicity MCC, Microscopy” value in data set [3] is >100 µM. Also, in data set [4], the CC50 was > 100 µM. In addition, the EC50 was 0.34 ± 0.18 µM in data set [1] (setting [7]), 0.46 ± 0.14 µM in data set [1] (setting [8]), 0.15 ± 0.12 µM in data set [2] (setting [9]) and 1.9 ± 1.1 µM in data set [2] (setting [10]).
In the case of `Cc1sccc1CNC(=O)c1cc(Cl)cc(C(F)(F)F)c1` [Compound 49, 3-Chloro-N-((2-methylthiophen-3-yl)methyl)-5-(trifluoromethyl)benzamide], in data set [3], the “Cytotoxicity MCC, Microscopy” value stood at 78 ± 22 µM. The CC50 in data set [4] is > 100 µM. The EC50 amounted to 0.14 ± 0.04 µM in data set [1] (setting [7]), 0.14 ± 0.05 µM in data set [1] (setting [8]), 0.37 ± 0.16 µM in data set [2] (setting [9]) and 0.48 ± 0.07 µM in data set [2] (setting [10]).
As for `O=C(NCc1ccsc1)c1cc(Cl)cc(C(F)(F)F)c1` [Compound 50, 3-Chloro-N-(Thiophen-3-ylmethyl)-5-(trifluoromethyl)benzamide], the “Cytotoxicity MCC, Microscopy” value in data set [3] turned out to be 100 ± 0 µM. Besides, the CC50 in data set [4] is 70 ± 2 µM. Also, the EC50 in data set [1] (setting [7]) was 2 ± 1 µM; in data set [1] (setting [8]) it was 1 ± 0.6 µM; in data set [2] (setting [9]), 1.1 ± 0.5 µM; in data set [2] (setting [10]), 2.1 µM. In data set [2], the “ΔΔG (exp), change VF-57a → labelled compound” value was determined as 0.8 kcal/mol. Besides, in data set [2], the “ΔΔG (exp), change labelled compound → VF-57a” value is recorded as “–0.8 kcal/mol”.
On to `Cc1cc(CNC(=O)c2cc(F)c(F)c(C(F)(F)F)c2)cs1` [Compound 51, 3,4-Difluoro-N-((5-methylthiophen-3-yl)methyl)-5-(trifluoromethyl)benzamide], for which the “Cytotoxicity MCC, Microscopy” value in data set [3] came out at 33 ± 0 µM. In data set [4], this molecule yielded a CC50 of 24 ± 2 µM. For the same molecule, the EC50 in data set [1] (setting [7]) was 2.9 ± 1.1 µM; in data set [1] (setting [8]), 3.5 ± 1.2 µM; in data set [2] (setting [9]) it was 5.3 ± 0.8 µM; in data set [2] (setting [10]) it was > 100 µM.
Consider `Cc1cc(CNC(=O)c2cc(Cl)c(F)c(C(F)(F)F)c2)cs1` [Compound 52, 3-Chloro-4-fluoro-N-((5-methylthiophen-3-yl)methyl)-5-(trifluoromethyl)benzamide], for which the “Cytotoxicity MCC, Microscopy” value in data set [3] was >100 µM. Besides, in data set [4], the CC50 was > 100 µM. For the same molecule, the EC50 in data set [1] (setting [7]) is 8.5 ± 5.6 µM; in data set [1] (setting [8]), 13 ± 8 µM; in data set [2] (setting [9]), > 100 µM; in data set [2] (setting [10]), > 100 µM.
Consider `Cc1cc(CNC(=O)c2cc(Cl)cc(C(F)(F)F)c2Cl)cs1` [Compound 53, 2,5-Dichloro-N-((5-methylthiophen-3-yl)methyl)-3-(trifluoromethyl)benzamide], for which the “Cytotoxicity MCC, Microscopy” value in data set [3] was >100 µM. In data set [4], the CC50 is > 100 µM. Further, the EC50 in data set [1] (setting [7]) was 17 ± 8 µM; in data set [1] (setting [8]) it was > 100 µM; in data set [2] (setting [9]), 31 ± 3 µM; in data set [2] (setting [10]), > 100 µM.
For `O=C(NCc1ccoc1)c1cc(F)cc(C(F)(F)F)c1` [Compound 56, 3-Fluoro-N-(Furan-3-ylmethyl)-5-(trifluoromethyl)benzamide], the EC50 in data set [1] (setting [5]) and in data set [2] (setting [6]) was > 100 µM each time.
As for `O=C(NCc1cncs1)c1cc(F)cc(C(F)(F)F)c1` [Compound 57, 3-Fluoro-N-(Thiazol-5-ylmethyl)-5-(trifluoromethyl)benzamide], the EC50 in data set [1] (setting [5]) and in data set [2] (setting [6]) was > 100 µM throughout.
With `O=C(NCc1ccon1)c1cc(F)cc(C(F)(F)F)c1` [Compound 58, 3-Fluoro-N-(Isoxazol-3-ylmethyl)-5-(trifluoromethyl)benzamide], the EC50 in data set [1] (setting [5]) and in data set [2] (setting [6]) was > 100 µM each time.
For the molecule `O=C(NCc1ccncc1)c1cc(F)cc(C(F)(F)F)c1` [Compound 59, 3-Fluoro-N-(Pyridin-4-ylmethyl)-5-(trifluoromethyl)benzamide], the EC50 in data set [1] (setting [5]) and in data set [2] (setting [6]) was > 100 µM each time.
`O=C(NCc1cc[nH]n1)c1cc(F)cc(C(F)(F)F)c1` [Compound 60, N-((1H-Pyrazol-3-Yl)methyl)-3-fluoro-5-(trifluoromethyl)benzamide]: the EC50 in data set [1] (setting [5]) and in data set [2] (setting [6]) was > 100 µM in each case.
For `O=C(NCc1cocn1)c1cc(F)cc(C(F)(F)F)c1` [Compound 61, 3-Fluoro-N-(Oxazol-4-ylmethyl)-5-(trifluoromethyl)benzamide], the EC50 in data set [1] (setting [5]) and in data set [2] (setting [6]) was > 100 µM throughout.
`O=C(NCc1cscn1)c1cc(F)cc(C(F)(F)F)c1` [Compound 62, 3-Fluoro-N-(Thiazol-4-ylmethyl)-5-(trifluoromethyl)benzamide]: the EC50 in data set [1] (setting [5]) and in data set [2] (setting [6]) was > 100 µM each time.
